# According to patent US20210244720A1, “Therapeutic Tyrosine Kinase Inhibitors for Relapsing Multiple Sclerosis (RMS)” (Genzyme Corporation, priority 2020, published 2021):
# Test system: participants with relapsing multiple sclerosis (RMS)
# Assay: Phase 2b study in RMS: safety and tolerability (adverse events, laboratory tests, ECG, vital signs)
# Conditions: for proportion of participants with TEAEs: treatment period
# [1] = 60 mg, 12 weeks treatment, n = 32
# [2] = 60 mg, BTK inhibitor treatment period, safety population, N = 32
# [3] = 60 mg, BTK inhibitor treatment period, safety population, N = 33
# [4] = 12-week treatment period, 15 mg
# [5] = 12-week treatment period, 30 mg
# [6] = 12-week treatment period, 60 mg
# [7] = All Dose Groups, 12 weeks treatment, N = 130
# [8] = All Dose Groups, Weeks 1 to 12, N = 130
# [9] = All, BTK inhibitor treatment period, safety population, N = 130
smiles,measurement,setting,value
"C=CC(=O)N1CCC[C@@H](n2c(=O)n(-c3ccc(Oc4ccccc4)cc3)c3c(N)nccc32)C1 [the BTK inhibitor, (R)-1-(1-acryloylpiperidin-3-yl)-4-amino-3-(4-phenoxyphenyl)-1H-imidazo[4,5-c]pyridin-2(3H)-one]","Nasopharyngitis, patients %",[1],(9%)
same,"Nasopharyngitis, patients n",[1],3
same,"Oropharyngeal pain, patients %",[1],(3%)
same,"Oropharyngeal pain, patients n",[1],1
same,"Peripheral edema, patients %",[1],(6%)
same,"Peripheral edema, patients n",[1],2
same,"Respiratory tract infection, patients %",[1],(3%)
same,"Respiratory tract infection, patients n",[1],1
same,"Upper respiratory tract infection, patients %",[1],(3%)
same,"Upper respiratory tract infection, patients n",[1],1
same,"AESI, Alanice aminotransferase increased, n (%)",[2],1 (3.1)
same,"AESI, Investigations, n (%)",[2],1 (3.1)
same,"Any AESI, n (%)",[2],1 (3.1)
same,"Participants with any TEAE, %",[3],(54.5) %
same,"Participants with any treatment-related TEAE, %",[3],(6.1) %
same,treatment-emergent SAE,"60 mg, Cohort 1, MS relapse",One
same,"AESI, Alanice aminotransferase increased, n (%)","60 mg, Weeks 1 to 4, N = 16",0
same,"AESI, Investigations, n (%)","60 mg, Weeks 1 to 4, N = 16",0
same,"Any AESI, n (%)","60 mg, Weeks 1 to 4, N = 16",0
same,"Participants with any TEAE, %","60 mg, Weeks 1 to 4, N = 33",(42.4) %
same,"Participants with any treatment-related TEAE, %","60 mg, Weeks 1 to 4, N = 33",(9.1) %
same,"Any AE, %","60 mg, Weeks 1 to 4, n = 16",(31.3%)
same,"Any treatment-related AE, %","60 mg, Weeks 1 to 4, n = 16",(6.3%)
same,"Any AE, %","60 mg, Weeks 1 to 12, n = 32",(50.0) %
same,"Any treatment-related AE, %","60 mg, Weeks 1 to 12, n = 32",(21.9) %
same,"Serious AE, %","60 mg, Weeks 1 to 12, n = 32",(3.1) %
same,correlation between dose administered and number of TEAEs,5-60 mg,no direct correlation
same,TEAE alanine aminotransferase increased,"12-week treatment period, 5 mg",1
same,TEAE alopecia,"12-week treatment period, 5 mg",1
same,TEAE back pain,"12-week treatment period, 5 mg",1
same,TEAE gastroenteritis,"12-week treatment period, 5 mg",1
same,TEAE headache,"12-week treatment period, 5 mg",1
same,TEAE nasopharyngitis,"12-week treatment period, 5 mg",1
same,TEAE oedema peripheral,"12-week treatment period, 5 mg",2
same,TEAE oropharyngeal pain,"12-week treatment period, 5 mg",1
same,TEAE upper respiratory tract infection,"12-week treatment period, 5 mg",2
same,TEAE alopecia,[4],1
same,TEAE back pain,[4],1
same,TEAE headache,[4],3
same,TEAE respiratory tract infection,[4],1
same,TEAE upper respiratory tract infection,[4],2
same,TEAE alanine aminotransferase increased,[5],1
same,TEAE back pain,[5],2
same,TEAE headache,[5],1
same,TEAE muscle spasticity,[5],1
same,TEAE nasopharyngitis,[5],1
same,TEAE oropharyngeal pain,[5],1
same,TEAE respiratory tract infection,[5],1
same,TEAE upper respiratory tract infection,[5],1
same,TEAE accidental overdose,[6],3
same,TEAE alanine aminotransferase increased,[6],1
same,TEAE alopecia,[6],1
same,TEAE gastroenteritis,[6],2
same,TEAE headache,[6],4
same,TEAE muscle spasticity,[6],2
same,TEAE nasopharyngitis,[6],3
same,TEAE oedema peripheral,[6],2
same,TEAE oropharyngeal pain,[6],1
same,TEAE respiratory tract infection,[6],1
same,TEAE upper respiratory tract infection,[6],1
same,tolerability,12 weeks of treatment,well-tolerated
same,"Accidental overdose, patients n (%)",[7],3 (2%)
same,"Alanine aminotransferase increased, patients n (%)",[7],3 (2%)
same,"Alopecia, patients n (%)",[7],3 (2%)
same,"Back pain, patients n (%)",[7],4 (3%)
same,"Gastroenteritis, patients n (%)",[7],3 (2%)
same,"Headache, patients n (%)",[7],9 (7%)
same,"Muscle spasticity, patients n (%)",[7],3 (2%)
same,"Nasopharyngitis, patients n (%)",[7],5 (4%)
same,"Oropharyngeal pain, patients n (%)",[7],3 (2%)
same,"Peripheral edema, patients n (%)",[7],4 (3%)
same,"Respiratory tract infection, patients n (%)",[7],3 (2%)
same,"Upper respiratory tract infection, patients n (%)",[7],6 (5%)
same,"Any AE, %",[8],(53.8) %
same,"Any treatment-related AE, %",[8],(13.1) %
same,"Serious AE, %",[8],(0.8) %
same,"AESI, Alanice aminotransferase increased, n (%)",[9],2 (1.5)
same,"AESI, Investigations, n (%)",[9],2 (1.5)
same,"Any AESI, n (%)",[9],2 (1.5)
same,"Participants with any TEAE, %",[9],(53.1) %
same,"Participants with any severe TEAE, %",[9],(0.8) %
same,"Participants with any treatment emergent SAE, %",[9],(0.8) %
same,"Participants with any treatment-related TEAE, %",[9],(11.5) %
same,"Participants with treatment emergent SAE(s), Any class, n(%)",[9],1 (0.8)
same,"Participants with treatment emergent SAE(s), Multiple sclerosis relapse, n(%)",[9],1 (0.8)
same,"Participants with treatment emergent SAE(s), NERVOUS SYSTEM DISORDERS, n(%)",[9],1 (0.8)
same,"Participants with any TEAE, %","All, Weeks 1 to 4, N = 130",(38.5) %
same,"Participants with any treatment-related TEAE, %","All, Weeks 1 to 4, N = 130",(9.2) %
same,TEAE headache,"Weeks 1 to 4, 5 mg",3 cases
same,TEAE nausea,"Weeks 1 to 4, 5 mg",2 cases
same,proportion of participants who experienced TEAEs,"Weeks 1 to 4, 5 mg",31.3%
same,TEAE headache,"Weeks 1 to 4, 15 mg",2 cases
same,proportion of participants who experienced TEAEs,"Weeks 1 to 4, 15 mg",18.8%
same,TEAE nausea,"Weeks 1 to 4, 30 mg",1 cases
same,proportion of participants who experienced TEAEs,"Weeks 1 to 4, 30 mg",12.5%
same,TEAE headache,"Weeks 1 to 4, 60 mg",1 cases
same,proportion of participants who experienced TEAEs,"Weeks 1 to 4, 60 mg",31.3%
same,TEAE upper respiratory tract infection,"Weeks 1 to 4, each treatment group",1 case
same,TEAEs leading to permanent treatment discontinuation,all dose groups,no TEAEs leading to permanent treatment discontinuation
same,intensity of TEAEs,all dose groups,mild or moderate intensity except for one severe TEAE
same,"PCSAs related to vital signs, labs and ECGs",multiple treatment groups,no dose relationship
same,proportion of participants with TEAEs,5 mg,57.6%
same,proportion of participants with TEAEs,15 mg,53.1%
same,proportion of participants with TEAEs,30 mg,54.5%
same,proportion of participants with TEAEs,60 mg,50.0%
same,AESIs (alanine aminotransferase increased >3×ULN),whole study,two
same,deaths,whole study,No deaths
